The NIST ThermoML archive (doi:10.1021/je501041r)

Test: xn = mol fraction of the nth substance listed
Conditions: 101 kPa, Liquid; for viscosity: Capillary tube (Ostwald / Ubbelohde) method; for mass density: Vibrating tube method

CC(C)CC(C)(C)C [2,2,4-trimethylpentane] + CCCO
Conditions | mass density [kg/m3] | viscosity [mPa·s]
298.15 K, x1 = 0.02 | 795.39 | –
298.15 K, x1 = 0.04 | 790.82 | –
298.15 K, x1 = 0.06 | 786.22 | –
298.15 K, x1 = 0.1 | 777.82 | 1.518
298.15 K, x1 = 0.2 | 759.71 | 1.231
298.15 K, x1 = 0.3 | 744.88 | 1.007
298.15 K, x1 = 0.4 | 732.42 | 0.84
298.15 K, x1 = 0.4999 | 721.93 | 0.718
298.15 K, x1 = 0.5996 | 712.88 | 0.644
298.15 K, x1 = 0.6998 | 704.9 | 0.572
298.15 K, x1 = 0.7995 | 698.16 | 0.519
298.15 K, x1 = 0.9 | 692.36 | 0.491
298.15 K, x1 = 1 | 687.82 | 0.478
303.15 K, x1 = 0.02 | 791.36 | –
303.15 K, x1 = 0.04 | 786.77 | –
303.15 K, x1 = 0.06 | 782.15 | –
303.15 K, x1 = 0.1 | 773.72 | 1.361
303.15 K, x1 = 0.2 | 755.54 | 1.113
303.15 K, x1 = 0.3 | 740.67 | 0.909
303.15 K, x1 = 0.4 | 728.17 | 0.769
303.15 K, x1 = 0.4999 | 717.66 | 0.664
303.15 K, x1 = 0.5996 | 708.61 | 0.585
303.15 K, x1 = 0.6998 | 700.62 | 0.531
303.15 K, x1 = 0.7995 | 693.9 | 0.488
303.15 K, x1 = 0.9 | 688.13 | 0.464
303.15 K, x1 = 1 | 683.68 | 0.453
308.15 K, x1 = 0.02 | 787.26 | –
308.15 K, x1 = 0.04 | 782.66 | –
308.15 K, x1 = 0.06 | 778.03 | –
308.15 K, x1 = 0.1 | 769.57 | 1.223
308.15 K, x1 = 0.2 | 751.33 | 1.004
308.15 K, x1 = 0.3 | 736.41 | 0.831
308.15 K, x1 = 0.4 | 723.88 | 0.709
308.15 K, x1 = 0.4999 | 713.35 | 0.613
308.15 K, x1 = 0.5996 | 704.28 | 0.543
308.15 K, x1 = 0.6998 | 696.31 | 0.5
308.15 K, x1 = 0.7995 | 689.61 | 0.46
308.15 K, x1 = 0.9 | 683.86 | 0.438
308.15 K, x1 = 1 | 679.52 | 0.429
313.15 K, x1 = 0.02 | 783.12 | –
313.15 K, x1 = 0.04 | 778.51 | –
313.15 K, x1 = 0.06 | 773.86 | –
313.15 K, x1 = 0.1 | 765.38 | 1.1
313.15 K, x1 = 0.2 | 747.08 | 0.92
313.15 K, x1 = 0.3 | 732.1 | 0.758
313.15 K, x1 = 0.4 | 719.54 | 0.648
313.15 K, x1 = 0.4999 | 708.99 | 0.569
313.15 K, x1 = 0.5996 | 699.91 | 0.51
313.15 K, x1 = 0.6998 | 691.95 | 0.467
313.15 K, x1 = 0.7995 | 685.26 | 0.434
313.15 K, x1 = 0.9 | 679.55 | 0.414
313.15 K, x1 = 1 | 675.32 | 0.408
318.15 K, x1 = 0.02 | 778.94 | –
318.15 K, x1 = 0.04 | 774.31 | –
318.15 K, x1 = 0.06 | 769.64 | –
318.15 K, x1 = 0.1 | 761.14 | 0.994
318.15 K, x1 = 0.2 | 742.76 | 0.833
318.15 K, x1 = 0.3 | 727.73 | 0.693
318.15 K, x1 = 0.4 | 715.13 | 0.596
318.15 K, x1 = 0.4999 | 704.58 | 0.529
318.15 K, x1 = 0.5996 | 695.48 | 0.479
318.15 K, x1 = 0.6998 | 687.53 | 0.439
318.15 K, x1 = 0.7995 | 680.87 | 0.41
318.15 K, x1 = 0.9 | 675.2 | 0.393
318.15 K, x1 = 1 | 671.1 | 0.388
323.15 K, x1 = 0.02 | 774.7 | –
323.15 K, x1 = 0.04 | 770.05 | –
323.15 K, x1 = 0.06 | 765.36 | –
323.15 K, x1 = 0.1 | 756.84 | 0.903
323.15 K, x1 = 0.2 | 738.39 | 0.767
323.15 K, x1 = 0.3 | 723.3 | 0.648
323.15 K, x1 = 0.4 | 710.67 | 0.554
323.15 K, x1 = 0.4999 | 700.11 | 0.491
323.15 K, x1 = 0.5996 | 691 | 0.445
323.15 K, x1 = 0.6998 | 683.07 | 0.413
323.15 K, x1 = 0.7995 | 676.44 | 0.388
323.15 K, x1 = 0.9 | 670.81 | 0.373
323.15 K, x1 = 1 | 666.85 | 0.369
